System: Jurkat IL-2 Production
Test: Jurkat IL-2 Production Assay
Assay type: cell-based
Conditions: Homo sapiens, Jurkat cell (ATCC), 18-20 h incubation, PHA 5 μg/mL with 1% FBS, or PMA/Ionomycin with 30% FBS (table does not say which)
Experimental: Jurkat IL-2 Production Assay
Cell: Jurkat cell (ATCC) was grown in RPMI 1640 with 10% FBS and 1% penicillin/streptomycin. The cell density was kept at 1.2-1.8×10^6/mL in culture flask before seeding into culture plate, and the cell density in the plate was 0.5×10^6/[…]/well.
Culture media: RPMI 1640 with 1% FBS or 30% FBS for high serum assay.
Test compound: serial dilution was done in 100% DMSO, and intermediate dilution was done with RPMI 1640 medium with 1% FBS. The DMSO final concentration in culture well was 0.25%.
Stimulant: PHA (Sigma#L9017-10MG) was used for the assay with 1% FBS in culture medium, and added after 10 minutes exposure of cell to compound/DMSO. The PHA final concentration in culture well was 5 μg/mL. PMA (Sigma# P-8139 5MG)/Ionomycin (Sigma# 10634-5MG) was used for the assay with 30% FBS in culture medium, and added at same time point as the 1% FBS culture assay. The final concentration of PMA was 50 ng/mL, and Ionomycin final concentration was 500 ng/mL.
Incubation: at 37° C. with 5% CO2 and 95% humidity for 18 h˜20 h.
IC50: IC50 was calculated with the data analysis software XLfit4, General Pharmacology model 251.

| SMILES | IC50 |
| --- | --- |
| Cc1ccc(-c2nccs2)cc1-c1ccc2[nH]c(-c3c(F)cccc3F)cc2c1 [Example 25, 2-(2,6-Difluoro-phenyl)-5-(2-methyl-5-thiazol-2-yl-phenyl)-1H-indole] | 224 nM |
| COc1cc(F)c(-c2cc3cc(-c4nc(-c5cccnc5)sc4C)ccc3[nH]2)c(F)c1 [Example 66, 2-(2,6-Difluoro-4-methoxy-phenyl)-5-(5-methyl-2-pyridin-3-yl-thiazol-4-yl)-1H-indole] | 33 nM |
| Fc1cccc(F)c1-c1cc2cc(-c3ccc(C(F)(F)F)cc3C(F)(F)F)ccc2[nH]1 [Example 92, 5-(2,4-Bis-trifluoromethyl-phenyl)-2-(2,6-difluoro-phenyl)-1H-indole] | 188 nM |
| Cn1nc(C(F)(F)F)cc1-c1ccc2[nH]c(-c3cc(F)ccc3Cl)cc2c1 [Example 42, 2-(2-Chloro-5-fluoro-phenyl)-5-(2-methyl-5-trifluoromethyl-2H-pyrazol-3-yl)-1H-indole] | 204 nM |
| Cc1sc(C2CC2)nc1-c1ccc2[nH]c(-c3ccccc3Cl)cc2c1 [Example 71] | 584 nM |
| COc1ccc(OC)c(-c2ccc3[nH]c(-c4c(F)cccc4F)cc3c2)c1 [Example 26, 2-(2,6-Difluoro-phenyl)-5-(2,5-dimethoxy-phenyl)-1H-indole] | 639 nM |
| Cc1sc(C(C)C)nc1-c1ccc2[nH]c(-c3c(F)cccc3F)cc2c1 [Example 70, 2-(2,6-Difluoro-phenyl)-5-(2-isopropyl-5-methyl-thiazol-4-yl)-1H-indole] | 356 nM |
| Cc1sc(-c2ccccn2)nc1-c1ccc2[nH]c(-c3ccncc3F)cc2c1 [Example 9, 2-(3-Fluoro-pyridin-4-yl)-5-(5-methyl-2-pyridin-2-yl-thiazol-4-yl)-1H-indole] | 908 nM |
| Cn1nc(-c2ccncc2)cc1-c1ccc2[nH]c(-c3c(F)cccc3F)cc2c1 [Example 17, 2-(2,6-Difluoro-phenyl)-5-(2-methyl-5-pyridin-4-yl-2H-pyrazol-3-yl)-1H-indole] | 57 nM |
| Cn1nc(-c2cccnc2)cc1-c1ccc2[nH]c(-c3cccc(Cl)c3Cl)cc2c1 [Example 85, 2-(2,3-Dichloro-phenyl)-5-(2-methyl-5-pyridin-3-yl-2H-pyrazol-3-yl)-1H-indole] | 149 nM |
| COC(=O)c1ccc(-c2ccc3[nH]c(-c4c(F)cccc4F)cc3c2)c(C)c1 [Example 30] | 85 nM |
| COC(=O)c1ccc(-c2cc3cc(-c4nc(-c5cccnc5)sc4C)ccc3[nH]2)c(C)c1 [Example 65, Methyl-4-[5-(5-methyl-2-pyridin-3-yl-thiazol-4-yl)-1H-indol-2-yl]-benzoic acid methyl ester] | 71 nM |
| Cc1sc(-c2cccnc2)nc1-c1ccc2[nH]c(-c3ccccc3Cl)cc2c1 [Example 12, 2-(2-Chloro-phenyl)-5-(5-methyl-2-pyridin-3-yl-thiazol-4-yl)-1H-indole] | 86 nM |
| Cn1nc(C(F)(F)F)cc1-c1ccc2[nH]c(-c3cccc(Cl)c3Cl)cc2c1 [Example 41, 2-(2,3-Dichloro-phenyl)-5-(2-methyl-5-trifluoromethyl-2H-pyrazol-3-yl)-1H-indole] | 486 nM |
| Cn1nc(C2CC2)cc1-c1ccc2[nH]c(-c3c(F)cccc3F)cc2c1 [Example 63, 5-(5-Cyclopropyl-2-methyl-2H-pyrazol-3-yl)-2-(2,6-difluoro-phenyl)-1H-indole] | 368 nM |

The remaining lines, values ahead:

| IC50 | SMILES |
| --- | --- |
| 316 nM | Cc1cc(N2CCOCC2)ncc1-c1ccc2[nH]c(-c3c(F)cccc3Cl)cc2c1 [Example 165, 4-(5-(2-(2-chloro-6-fluorophenyl)-1H-indol-5-yl)-4-methylpyridin-2-yl)morpholine] |
| 41 nM | Cc1cc(S(C)(=O)=O)ncc1-c1ccc2[nH]c(-c3cnccc3C)cc2c1 [Example 214, 5-(6-Methanesulfonyl-4-methyl-pyridin-3-yl)-2-(4-methyl-pyridin-3-yl)1indole] |
| 22 nM | CCc1cc(Cl)ncc1-c1ccc2[nH]c(-c3c(F)cccc3Cl)cc2c1 [Example 174, 5-(6-Chloro-4-ethyl-pyridin-3-yl)-2-(2-chloro-6-fluoro-phenyl)-1H-indole] |
| 100 nM | Cc1sc(-c2ccccn2)nc1-c1ccc2[nH]c(-c3c(Cl)cccc3Cl)cc2c1 [Example 217, 2-(2,6-Dichloro-phenyl)-5-(5-methyl-2-pyridin-2-yl-thiazol-4-yl)-1H-indole] |
| 307 nM | Cc1cc(OC(F)(F)F)ccc1-c1ccc2[nH]c(-c3c(F)cccc3F)cc2c1 [Example 100, 2-(2,6-Difluoro-phenyl)-5-(2-methyl-4-trifluoromethoxy-phenyl)-1H-indole] |
| 28 nM | CCn1nc(-c2cnccn2)cc1-c1ccc2[nH]c(-c3c(F)cccc3Cl)cc2c1 [Example 183, 2-(2-chloro-6-fluorophenyl)-5-(1-ethyl-3-(pyrazin-2-yl)-1H-pyrazol-5-yl)-1H-indole] |
| 83 nM | COc1cc(C)c(-c2ccc3[nH]c(C4CCCCC4)cc3c2)cn1 [Example 224, 2-cyclohexyl-5-(6-methoxy-4-methylpyridin-3-yl)-1H-indole] |
| 190 nM | Cn1nc(-c2ncco2)cc1-c1ccc2[nH]c(-c3c(F)cccc3F)cc2c1 [Example 110, 2-(2,6-Difluoro-phenyl)-5-(2-methyl-5-oxazol-2-yl-2H-pyrazol-3-yl)-1H-indole] |
| 110 nM | CCn1nc(C(F)(F)F)cc1-c1ccc2c(c1)CC(C1CCCCC1)N2 (centres unmarked) [Example 197] |
| 39 nM | Cn1nc(-c2cccnc2)nc1-c1ccc2[nH]c(-c3c(F)cccc3F)cc2c1 [Example 114, 2-(2,6-Difluoro-phenyl)-5-(2-methyl-5-pyridin-3-yl-2H-[1,2,4]triazol-3-yl)-1H-indole] |
| 76 nM | CCn1nc(C(F)(F)F)cc1-c1ccc2[nH]c(-c3ccncc3C)cc2c1 [Example 189, 5-(1-ethyl-3-(trifluoromethyl)-1H-pyrazol-5-yl)-2-(3-methylpyridin-4-yl)-1H-indole] |
| 177 nM | CS(=O)(=O)c1ccc(-c2ccc3[nH]c(-c4c(F)cccc4F)cc3c2)c(C(F)(F)F)c1 [Example 96, 2-(2,6-Difluoro-phenyl)-5-(4-methanesulfonyl-2-trifluoromethyl-phenyl)-1H-indole] |
| 74 nM | Cc1cc(-c2ncco2)ccc1-c1ccc2[nH]c(-c3c(F)cccc3F)cc2c1 [Example 102, 2-(2,6-Difluoro-phenyl)-5-(2-methyl-4-oxazol-2-yl-phenyl)-1H-indole] |
| 49 nM | Cc1sc(-c2ncco2)nc1-c1ccc2[nH]c(-c3c(F)cccc3Cl)cc2c1 [Example 125, 2-(2-Chloro-6-fluoro-phenyl)-5-(5-methyl-2-oxazol-2-yl-thiazol-4-yl)-1H-indole] |
| 618 nM | Cc1cc(C#N)ccc1-c1ccc2[nH]c(-c3ccnn3C)cc2c1 [Example 150, methyl-4-(2-(1-methyl-1H-pyrazol-5-yl)-1H-indol-5-yl)benzonitrile] |
| 28 nM | CC(C)c1sc(-c2cccnc2)nc1-c1ccc2[nH]c(-c3c(F)cccc3Cl)cc2c1 [Example 180, 2-(2-Chloro-6-fluoro-phenyl)-5-(5-isopropyl-2-pyridin-3-yl-thiazol-4-yl)-1H-indole] |
| 60 nM | COc1cc(C)c(-c2ccc3[nH]c(-c4c(F)cccc4F)cc3c2)cn1 [Example 113, 2-(2,6-Difluoro-phenyl)-5-(6-methoxy-4-methyl-pyridin-3-yl)-1H-indole] |
